Laboratory results from article PMC4254624 (Biochemical and biophysical research communications, 2014).
Where two headings read alike, the source gives them in different places.

Experiments:
[1] = molecular target: T1, EcSecA intrinsic ATPase (Escherichia coli, UniProt P10408); assay: Intrinsic ATPase activity assay of EcSecA; type: biochemical; settings: for Ki: read-out: apparent Ki, intrinsic ATPase; for Km / Vmax: Intrinsic
[2] = molecular target: PaSecA (Pseudomonas aeruginosa, UniProt Q9LCT3); assay: SecA ion channel activity in Xenopus oocytes; type: cell-based, P. aeruginosa; settings: for IC50: read-out: IC50 inhibition of SecA channel activity in oocytes, PaSecA
PaSecA, sequence (Q9LCT3 whole entry): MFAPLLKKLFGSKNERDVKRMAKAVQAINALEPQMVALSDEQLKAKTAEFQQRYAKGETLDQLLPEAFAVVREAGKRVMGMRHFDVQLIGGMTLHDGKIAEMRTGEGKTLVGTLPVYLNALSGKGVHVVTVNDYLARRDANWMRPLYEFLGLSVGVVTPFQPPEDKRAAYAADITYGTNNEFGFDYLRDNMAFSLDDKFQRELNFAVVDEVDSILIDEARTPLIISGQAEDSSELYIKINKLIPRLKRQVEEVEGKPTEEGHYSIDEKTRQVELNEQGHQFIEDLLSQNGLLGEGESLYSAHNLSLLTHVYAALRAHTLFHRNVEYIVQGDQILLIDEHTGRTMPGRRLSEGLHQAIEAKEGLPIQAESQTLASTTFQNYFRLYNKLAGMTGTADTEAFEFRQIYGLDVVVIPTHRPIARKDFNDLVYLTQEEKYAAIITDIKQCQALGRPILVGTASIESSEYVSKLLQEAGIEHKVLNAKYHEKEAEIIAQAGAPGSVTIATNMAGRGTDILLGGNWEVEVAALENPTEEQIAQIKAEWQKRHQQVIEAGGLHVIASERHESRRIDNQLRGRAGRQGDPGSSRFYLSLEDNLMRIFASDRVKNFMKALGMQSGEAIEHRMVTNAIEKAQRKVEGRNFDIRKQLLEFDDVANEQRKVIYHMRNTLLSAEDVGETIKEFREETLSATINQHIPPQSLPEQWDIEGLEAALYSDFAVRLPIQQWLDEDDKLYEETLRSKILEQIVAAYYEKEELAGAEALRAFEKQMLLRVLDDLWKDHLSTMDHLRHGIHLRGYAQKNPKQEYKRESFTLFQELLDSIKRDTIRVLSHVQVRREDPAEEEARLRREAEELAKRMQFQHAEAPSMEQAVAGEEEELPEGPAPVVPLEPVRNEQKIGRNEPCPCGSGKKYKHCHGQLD

[3] = molecular target: EcSecA membrane ATPase (Escherichia coli, UniProt P10408); assay: Membrane ATPase activity assay of EcSecA with urea-washed BA13 membrane; type: biochemical
EcSecA membrane ATPase, sequence (P10408 whole entry): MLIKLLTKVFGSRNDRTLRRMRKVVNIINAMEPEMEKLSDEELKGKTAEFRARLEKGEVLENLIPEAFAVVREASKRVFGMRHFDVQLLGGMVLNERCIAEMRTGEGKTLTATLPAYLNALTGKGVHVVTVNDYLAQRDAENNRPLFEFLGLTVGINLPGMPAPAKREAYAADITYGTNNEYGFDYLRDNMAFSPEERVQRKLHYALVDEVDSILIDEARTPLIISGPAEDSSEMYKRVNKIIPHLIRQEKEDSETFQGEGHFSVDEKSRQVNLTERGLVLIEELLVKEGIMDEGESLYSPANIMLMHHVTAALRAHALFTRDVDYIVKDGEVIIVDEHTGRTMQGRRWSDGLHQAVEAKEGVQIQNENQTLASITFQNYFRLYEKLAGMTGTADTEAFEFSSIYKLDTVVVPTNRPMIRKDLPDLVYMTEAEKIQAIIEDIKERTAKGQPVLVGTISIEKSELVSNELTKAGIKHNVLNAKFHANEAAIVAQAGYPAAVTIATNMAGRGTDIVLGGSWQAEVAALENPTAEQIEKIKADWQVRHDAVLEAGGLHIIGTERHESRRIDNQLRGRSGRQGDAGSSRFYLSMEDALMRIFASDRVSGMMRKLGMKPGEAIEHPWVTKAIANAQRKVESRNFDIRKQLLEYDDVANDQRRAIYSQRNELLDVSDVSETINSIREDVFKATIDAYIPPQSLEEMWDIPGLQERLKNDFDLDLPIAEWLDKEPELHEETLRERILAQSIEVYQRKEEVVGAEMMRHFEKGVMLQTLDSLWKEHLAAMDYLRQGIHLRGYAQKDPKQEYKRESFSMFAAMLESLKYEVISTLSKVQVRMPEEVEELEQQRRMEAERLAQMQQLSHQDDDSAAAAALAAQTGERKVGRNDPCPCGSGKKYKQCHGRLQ

[4] = molecular target: EcSecA (Escherichia coli, UniProt P10408); assay: SecA ion channel activity in Xenopus oocytes; type: cell-based; settings: for IC50: read-out: IC50 inhibition of SecA channel activity in oocytes, EcSecA
EcSecA, sequence (P10408 whole entry): as above

[5] = molecular target: BsSecA (Bacillus subtilis, UniProt P28366); assay: SecA ion channel activity in Xenopus oocytes; type: cell-based; settings: for IC50: read-out: IC50 inhibition of SecA channel activity in oocytes, BsSecA
BsSecA, sequence (P28366 whole entry): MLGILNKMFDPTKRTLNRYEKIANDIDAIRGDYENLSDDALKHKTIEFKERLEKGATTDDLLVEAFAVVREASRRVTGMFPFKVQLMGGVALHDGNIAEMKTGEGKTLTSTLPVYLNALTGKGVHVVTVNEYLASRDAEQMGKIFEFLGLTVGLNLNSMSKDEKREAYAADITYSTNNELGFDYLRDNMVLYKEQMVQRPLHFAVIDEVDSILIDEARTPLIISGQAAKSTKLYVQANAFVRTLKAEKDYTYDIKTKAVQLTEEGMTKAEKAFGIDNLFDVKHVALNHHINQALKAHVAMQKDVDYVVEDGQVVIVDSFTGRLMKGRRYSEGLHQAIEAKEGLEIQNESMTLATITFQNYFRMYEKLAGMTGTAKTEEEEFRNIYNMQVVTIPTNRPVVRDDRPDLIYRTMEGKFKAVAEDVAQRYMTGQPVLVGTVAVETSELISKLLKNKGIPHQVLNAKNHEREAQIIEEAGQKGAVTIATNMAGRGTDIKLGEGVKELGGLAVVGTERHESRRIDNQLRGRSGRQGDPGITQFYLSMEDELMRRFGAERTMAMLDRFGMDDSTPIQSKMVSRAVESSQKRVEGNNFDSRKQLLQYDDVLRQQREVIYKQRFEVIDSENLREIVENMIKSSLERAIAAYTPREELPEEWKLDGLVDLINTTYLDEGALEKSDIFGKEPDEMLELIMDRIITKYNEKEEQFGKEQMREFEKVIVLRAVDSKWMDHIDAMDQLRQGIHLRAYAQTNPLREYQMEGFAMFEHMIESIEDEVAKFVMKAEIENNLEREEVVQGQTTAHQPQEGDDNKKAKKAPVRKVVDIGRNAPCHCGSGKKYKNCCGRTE

[6] = molecular target: EcSecA translocation ATPase (Escherichia coli, UniProt P10408); assay: Translocation ATPase activity assay of EcSecA with BA13 membrane and proOmpA; type: biochemical; settings: for Km / Vmax: Translocation
EcSecA translocation ATPase, sequence (P10408 whole entry): as the sequence (P10408 whole entry) above

[7] = molecular target: BsSecA intrinsic ATPase (Bacillus subtilis, UniProt P28366); assay: Intrinsic ATPase activity assay of BsSecA; type: biochemical
BsSecA intrinsic ATPase, sequence (P28366 whole entry): as the sequence (P28366 whole entry) above

[8] = molecular target: T1, EcSecA intrinsic ATPase; settings: cited from earlier work
[9] = high ATP concentrations (above 1 mM), non-competitive
[10] = low ATP concentrations (below 0.6 mM), competitive

T1 sequence (P10408 whole entry): as the sequence (P10408 whole entry) above

O.O=C([O-])c1ccccc1-c1c2cc(I)c(=O)c(I)c-2oc2c(I)c([O-])c(I)cc12.[Na+].[Na+] [EB, Erythrocin B]
mechanism of inhibition of intrinsic ATPase versus ATP ([1]; high ATP concentrations): non-competitively | mechanism of inhibition of intrinsic ATPase versus ATP ([1]; low ATP concentrations): competitively | Ki [1, 9]: 34.3 ± 8.08 µM | Ki [1, 10]: 4.06 ± 0.32 µM

O=C1OC2(c3cc(I)c(O)c(I)c3Oc3c2cc(I)c(O)c3I)c2c(Cl)c(Cl)c(Cl)c(Cl)c21 [RB, Rose Bengal]
mechanism of inhibition of liposome channel activity with ATP ([2]; PaSecA-liposomes in oocytes): non-competitive inhibition | IC50 ([2]; BA13 memb): 5.1 ± 0.2 µM | IC50 ([2]; L+SecYEG +SecDF•C): 2 ± 0.3 µM | IC50 ([2]; Lipo): 0.3 ± 0.2 µM | IC50 ([2]; RE-13 memb +SecYEG): 5.1 ± 0.2 µM | IC50 ([2]; RE-13 memb +SecYEG-DF•C): 5.1 ± 0.1 µM | mechanism of inhibition of membrane ATPase [3]: mixed-mechanism | Vmax ([3]; Membrane, RB 2 μM): 13.61 molePi·moleSecA^−1min^−1 | Km ([3]; Membrane, RB 4 μM): 310 µM | Vmax ([3]; Membrane, RB 4 μM): 8.18 molePi·moleSecA^−1min^−1 | Ki ([3]; read-out: average Ki, membrane ATPase, mixed-mechanism): 1420 ± 220 nM | Km ([1]; High [ATP], RB 20 μM): 1.68 mM | Vmax ([1]; High [ATP], RB 20 μM): 6.08 molePi·moleSecA^−1min^−1 | Km ([1]; High [ATP], RB 40 μM): 1.68 mM | Vmax ([1]; High [ATP], RB 40 μM): 3.99 molePi·moleSecA^−1min^−1 | Km ([1]; Low [ATP], RB 20 μM): 0.25 mM | Vmax ([1]; Low [ATP], RB 20 μM): 3.07±0.16 molePi·moleSecA^−1min^−1 | Km ([1]; Low [ATP], RB 40 μM): 0.46 mM | Vmax ([1]; Low [ATP], RB 40 μM): 3.07±0.16 molePi·moleSecA^−1min^−1 | mechanism of inhibition of intrinsic ATPase versus ATP ([1]; high ATP concentrations): non-competitive inhibitor | mechanism of inhibition of intrinsic ATPase versus ATP ([1]; low ATP concentrations): competitive inhibitor | Ki [1, 9]: 57.1 ± 3.37 µM | Ki [1, 10]: 22.4 ± 3.33 µM | mechanism of inhibition of channel activity ([4]; EcSecA-SecYEG-SecDF•YajC liposomes in oocytes): non-competitive inhibition pattern | mechanism of inhibition of liposome channel activity with ATP ([4]; EcSecA-liposomes in oocytes): non-competitive inhibition | IC50 ([4]; BA13 memb): 4.7 ± 0.1 µM | IC50 ([4]; L+SecYEG +SecDF•C): 3.8 ± 0.3 µM | IC50 ([4]; RE-13 memb +SecYEG-DF•C): 4.4 ± 0.1 µM | mechanism of inhibition of liposome channel activity with ATP ([5]; BsSecA-liposomes in oocytes): non-competitive inhibition | IC50 ([5]; BA13 memb): 5.8 ± 0.3 µM | IC50 ([5]; L+SecYEG +SecDF•C): 4.5 ± 0.2 µM | IC50 ([5]; RE-13 memb +SecYEG-DF•C): 5.2 ± 0.3 µM | Km ([6]; RB 0.75 μM): 180 µM | Vmax ([6]; RB 0.75 μM): 23.42 molePi·moleSecA^−1min^−1 | Km ([6]; RB 1 μM): 180 µM | Vmax ([6]; RB 1 μM): 15.06 molePi·moleSecA^−1min^−1 | mechanism of inhibition of translocation ATPase ([6]; broad range of ATP concentrations): only non-competitively | Ki ([6]; read-out: Ki, translocation ATPase, non-competitive, broad range of ATP concentrations): 430 ± 20 nM | mechanism of inhibition of intrinsic ATPase [7]: two-site inhibition depending on the concentration of ATP

[N-]=[N+]=[N-].[Na+] [azide, sodium azide]
effect on SecA intrinsic ATPase activity [8]: does not affect
